From patent US8338455B2, “Compounds and methods of use” (Amgen Inc., priority 2006, dated 2012)

Biological target: KDR (Homo sapiens, UniProt P35968)
Assay: KDR kinase inhibition (Ki)
Assay type: biochemical

Chain of KDR (P35968 20-1356, species assumed): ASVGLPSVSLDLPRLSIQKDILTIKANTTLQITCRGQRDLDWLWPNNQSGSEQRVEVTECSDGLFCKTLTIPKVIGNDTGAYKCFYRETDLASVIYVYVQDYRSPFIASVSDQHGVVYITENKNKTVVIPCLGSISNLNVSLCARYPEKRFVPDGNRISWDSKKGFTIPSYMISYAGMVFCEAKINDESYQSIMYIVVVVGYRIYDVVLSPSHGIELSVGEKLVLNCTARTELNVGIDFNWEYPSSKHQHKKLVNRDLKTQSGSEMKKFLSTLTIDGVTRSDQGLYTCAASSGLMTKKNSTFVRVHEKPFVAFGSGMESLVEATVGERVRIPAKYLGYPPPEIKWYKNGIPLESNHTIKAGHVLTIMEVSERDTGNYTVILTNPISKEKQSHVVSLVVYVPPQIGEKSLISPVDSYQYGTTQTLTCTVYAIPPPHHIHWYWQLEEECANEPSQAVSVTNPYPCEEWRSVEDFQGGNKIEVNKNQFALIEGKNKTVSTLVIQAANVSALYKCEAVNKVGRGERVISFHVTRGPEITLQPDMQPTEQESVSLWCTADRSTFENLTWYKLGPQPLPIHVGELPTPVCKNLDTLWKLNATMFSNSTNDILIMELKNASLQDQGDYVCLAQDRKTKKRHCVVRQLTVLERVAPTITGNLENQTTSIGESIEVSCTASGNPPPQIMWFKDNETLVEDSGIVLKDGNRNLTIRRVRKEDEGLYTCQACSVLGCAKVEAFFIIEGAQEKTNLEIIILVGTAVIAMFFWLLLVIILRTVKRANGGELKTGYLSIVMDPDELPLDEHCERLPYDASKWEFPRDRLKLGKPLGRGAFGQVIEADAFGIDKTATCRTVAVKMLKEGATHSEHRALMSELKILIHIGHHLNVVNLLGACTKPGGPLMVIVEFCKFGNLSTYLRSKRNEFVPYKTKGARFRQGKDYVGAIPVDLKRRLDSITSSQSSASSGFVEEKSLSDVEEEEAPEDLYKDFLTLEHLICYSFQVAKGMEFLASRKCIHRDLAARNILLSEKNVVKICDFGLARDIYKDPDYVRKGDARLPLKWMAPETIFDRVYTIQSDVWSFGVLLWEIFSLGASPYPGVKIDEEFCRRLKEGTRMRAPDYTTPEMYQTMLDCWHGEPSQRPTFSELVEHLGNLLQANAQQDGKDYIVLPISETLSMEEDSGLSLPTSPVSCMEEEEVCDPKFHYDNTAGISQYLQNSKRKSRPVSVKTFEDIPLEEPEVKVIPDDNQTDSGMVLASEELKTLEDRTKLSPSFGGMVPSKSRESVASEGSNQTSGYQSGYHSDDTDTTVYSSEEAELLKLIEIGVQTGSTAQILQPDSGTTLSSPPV

SMILES	Ki
Cc1cccc(NC(=O)c2cccc3c2CCN(Cc2ccnc4ccccc24)C3)c1 [Example 3A]	0.105 µM
CC(C)c1ccc(NC(=O)Nc2cccc3c2CCN(Cc2ccnc4ccccc24)C3)cc1 [Example 5A]	0.0723 µM
CC(=O)N1CC(C)(C)c2ccc(NC(=O)c3cccc4c3CCN(Cc3ccnc5ccccc35)C4)cc21 [Example 3H]	0.0054 µM
COc1cc(NC(=O)c2cccc3c2CCN(Cc2ccnc4ccccc24)C3)cc(OC)c1 [Example 3C]	0.0428 µM
CC(C)(C)c1ccc(NC(=O)c2cccc3c2CCN(Cc2ccncc2)C3)cc1 [Example 1A]	0.333 µM
O=C(Nc1ccc(Cl)cc1)c1cccc2c1CCN(Cc1ccncc1)C2 [Example 1, N-(4-chlorophenyl)-2-(pyridin-4-ylmethyl)-1,2,3,4-tetrahydroisoquinoline-5-carboxamide]	3 µM

The remaining lines, values ahead:

Ki	SMILES
0.0701 µM	O=C(Nc1ccc(Cl)cc1)Nc1cccc2c1CCN(Cc1ccnc3ccccc13)C2 [Example 5C]
0.0016 µM	COc1cc2nccc(CN3CCc4c(C(=O)Nc5ccc(Cl)c(C(F)(F)F)c5)cccc4C3=O)c2cc1OC [Example 10A]
0.529 µM	COc1cc2nccc(Cn3ccc4cc(Cl)ccc4c3=O)c2cc1OC [Example 11, 6-chloro-2-((6,7-dimethoxyquinolin-4-yl)methyl)isoquinolin-1(2H)-one]
0.0111 µM	CC(C)(C)c1ccc(NC(=O)c2cccc3c2CCN(Cc2ccnc4ccccc24)C3=O)cc1 [Example 7A]
